Assay results reported in US20240199649A1 (Biosplice Therapeutics, Inc., priority 2022, published 2024).

What follows are molecules tested against recombinant DYRK1A kinase (Homo sapiens (Human), UniProt Q13627) (assay: DYRK1A kinase assay (Ser/Thr 18 peptide Z-lyte FRET assay)). Settings: DYRK1A 0.25 μg/mL, ATP 15 μM, Ser/Thr peptide 18 4 μM; one hour at room temperature; 11-point dose-response, duplicate.
Format: biochemical
Procedure: Representative compounds were screened using the assay procedure for DYRK1A kinase activity as described below.
Each compound was dissolved in DMSO as a 10 mM stock and used to prepare compound source plates.
This is a non-radioactive assay using fluorescence resonance energy transfer (FRET) between coumarin and fluorescein to detect kinase activity which is represented as a ratio of coumarin emission/fluorescein emission.
The mixture was allowed to incubate with the representative compounds for one hour at room temperature. All reactions were performed in duplicate. Unphosphorylated (“0% Control”) and phosphorylated (“100% control”) forms of Ser/Thr 18 served as control reactions. Additionally, an 11-point dose-response curve of Staurosporine (1 uM top) was run to serve as a positive compound control.
After incubation, Development Reagent A was diluted in Development Buffer then added to the reaction and allowed to further incubate for one hour at room temperature.
Dose-response curves were generated, and inhibitory concentration (IC50) values were calculated using non-linear regression curve fit in the Dotmatics' Studies Software (Bishops Stortford, UK).

SMILES	IC50 [nM]
C[C@]1(O)CC[C@H](Nc2nc(N)c3c(-c4ccn5nccc5c4)ccn3n2)CC1 [Compound 1, trans-4-((4-Amino-5-(pyrazolo[1,5-a]pyridin-5-yl)pyrrolo[2,1-f][1,2,4]triazin-2-yl)amino)-1-methylcyclohexan-1-ol]	172
CNc1nc(N[C@H]2CC[C@](C)(O)CC2)nn2ccc(-c3ccn4nccc4n3)c12 [Compound 20, trans-1-Methyl-4-((4-(methylamino)-5-(pyrazolo[1,5-a]pyrimidin-5-yl)pyrrolo[2,1-f][1,2,4]triazin-2-yl)amino)cyclohexan-1-ol]	2.5
CNc1nc(N[C@@H]2CCN(C)CC2(F)F)nn2ccc(-c3ccn4nccc4n3)c12 [Compound 44, (R)—N^2-(3,3-Difluoro-1-methylpiperidin-4-yl)-N^4-methyl-5-(pyrazolo[1,5-a]pyrimidin-5-yl)pyrrolo[2,1-f][1,2,4]triazine-2,4-diamine]	5.8
CNc1nc(NC2CCN(C3COC3)CC2)nn2ccc(-c3cnc4nc(C)n(C(C)C)c4c3)c12 [Compound 114]	744
CNc1nc(N[C@H]2C[C@@H](OCCO)C2)nn2ccc(-c3ccc4nc(C)n(CC(F)F)c4n3)c12 [Compound 172, 2-(cis-3-((5-(3-(2,2-Difluoroethyl)-2-methyl-3H-imidazo[4,5-b]pyridin-5-yl)-4-(methylamino)pyrrolo[2,1-f][1,2,4]triazin-2-yl)amino)cyclobutoxy)ethan-1-ol]	0.9

Other lines, results leading:

IC50 [nM]	SMILES
170	CNc1nc(N[C@H]2CC[C@](C)(O)CC2)nn2ccc(-c3ccc4nccn4c3)c12 [Compound 58, trans-4-((5-(Imidazo[1,2-a]pyridin-6-yl)-4-(methylamino)pyrrolo[2,1-f][1,2,4]triazin-2-yl)amino)-1-methylcyclohexan-1-ol]
1.7	CNc1nc(N[C@H]2CC[C@](C)(O)CC2)nn2ccc(-c3ccc4nc(C)n(C(C)C)c4n3)c12 [Compound 132, trans-4-((5-(3-Isopropyl-2-methyl-3H-imidazo[4,5-b]pyridin-5-yl)-4-(methylamino)pyrrolo[2,1-f][1,2,4]triazin-2-yl)amino)-1-methylcyclohexan-1-ol]
4.8	CNc1nc(N[C@H]2C[C@](C)(O)C2)nn2ccc(-c3cnc4nc(C)n(CC(F)F)c4c3)c12 [Compound 170, trans-3-((5-(1-(2,2-Difluoroethyl)-2-methyl-1H-imidazo[4,5-b]pyridin-6-yl)-4-(methylamino)pyrrolo[2,1-f][1,2,4]triazin-2-yl)amino)-1-methylcyclobutan-1-ol]
8	CNc1nc(N[C@H]2CC[C@](C)(O)CC2)nn2ccc(-c3cnc4nc(C)n(CC(F)F)c4c3)c12 [Compound 171, trans-4-((5-(1-(2,2-Difluoroethyl)-2-methyl-1H-imidazo[4,5-b]pyridin-6-yl)-4-(methylamino)pyrrolo[2,1-f][1,2,4]triazin-2-yl)amino)-1-methylcyclohexan-1-ol]
1.7	CNc1nc(N[C@H]2C[C@@](C)(O)C2)nn2ccc(-c3ccc4nc(C)n(CC(F)F)c4n3)c12 [Compound 174, Cis-3-((5-(3-(2,2-Difluoroethyl)-2-methyl-3H-imidazo[4,5-b]pyridin-5-yl)-4-(methylamino)pyrrolo[2,1-f][1,2,4]triazin-2-yl)amino)-1-methylcyclobutan-1-ol]
12	CNc1nc(NC2CCC(F)(F)CC2)nn2ccc(-c3ccc4nc(C)n(CC(F)F)c4n3)c12 [Compound 182, N^2-(4,4-Difluorocyclohexyl)-5-(3-(2,2-difluoroethyl)-2-methyl-3H-imidazo[4,5-b]pyridin-5-yl)-N^4-methylpyrrolo[2,1-f][1,2,4]triazine-2,4-diamine]
4.1	CNc1nc(N[C@H]2CC[C@@H](OC)CC2)nn2ccc(-c3ccc4nc(C)n(CC(F)F)c4n3)c12 [Compound 183, 5-(3-(2,2-Difluoroethyl)-2-methyl-3H-imidazo[4,5-b]pyridin-5-yl)-N^2-(cis-4-methoxycyclohexyl)-N^4-methylpyrrolo[2,1-f][1,2,4]triazine-2,4-diamine]
